The values that follow come from ChEMBL document CHEMBL1201862, “PubChem BioAssay data set” (2004).

The source made the active and inactive calls.

As a reminder, the AC50 is the midpoint of the concentration-response curve, whichever way the signal moves. The term CC50 denotes the concentration giving 50% cytotoxicity. A word on the EC50: it is the concentration at which the effect is half-maximal. A word on the IC50: it is the point on the concentration scale where inhibition reaches its midpoint.

One experiment deals with INS1. Kind of experiment: beta cell apoptosis inhibitors, cytokine rescue, dose response, luminescence, retest (AID 449756).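 Also: cell death triggered by IL-1 beta plus TNF-alpha plus IFN-gamma mixture; protective hits raise ATP signal compared with cytokine alone wells.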 The conditions noted are these: Rattus norvegicus. Type of experiment: functional, cell-based.
The next experiment deals with Vero. In words: cells. Type of experiment: functional. The conditions noted are these: Chlorocebus sabaeus.
Experiment [1] can be described thus: growth suppression of beta-catenin-knockout colon cells, dose response, cell-based, HCT116, human colon tumor (AID 1045).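 Also: HCT116 colon tumor cells with beta catenin knocked out; cells exposed to compound for 60 hours.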 Type of experiment: functional.
Experiment [2] in a line: growth suppression of PTEN-null colon cells, dose response, cell-based, HCT116 PTEN knockout (AID 1047).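 Also: HCT116 colon tumor cells with PTEN knocked out; cells exposed to compound for 60 hours before readout; potency for loss of cell viability measured by luminescence.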 Type of experiment: functional.
In experiment [3] the target is Voltage-dependent T-type calcium channel subunit alpha-1H (Homo sapiens, UniProt O95180). Type of experiment: functional.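 Also: channel activity triggered by adding a high calcium stimulation buffer.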
Voltage-dependent T-type calcium channel subunit alpha-1H, sequence (O95180 whole entry): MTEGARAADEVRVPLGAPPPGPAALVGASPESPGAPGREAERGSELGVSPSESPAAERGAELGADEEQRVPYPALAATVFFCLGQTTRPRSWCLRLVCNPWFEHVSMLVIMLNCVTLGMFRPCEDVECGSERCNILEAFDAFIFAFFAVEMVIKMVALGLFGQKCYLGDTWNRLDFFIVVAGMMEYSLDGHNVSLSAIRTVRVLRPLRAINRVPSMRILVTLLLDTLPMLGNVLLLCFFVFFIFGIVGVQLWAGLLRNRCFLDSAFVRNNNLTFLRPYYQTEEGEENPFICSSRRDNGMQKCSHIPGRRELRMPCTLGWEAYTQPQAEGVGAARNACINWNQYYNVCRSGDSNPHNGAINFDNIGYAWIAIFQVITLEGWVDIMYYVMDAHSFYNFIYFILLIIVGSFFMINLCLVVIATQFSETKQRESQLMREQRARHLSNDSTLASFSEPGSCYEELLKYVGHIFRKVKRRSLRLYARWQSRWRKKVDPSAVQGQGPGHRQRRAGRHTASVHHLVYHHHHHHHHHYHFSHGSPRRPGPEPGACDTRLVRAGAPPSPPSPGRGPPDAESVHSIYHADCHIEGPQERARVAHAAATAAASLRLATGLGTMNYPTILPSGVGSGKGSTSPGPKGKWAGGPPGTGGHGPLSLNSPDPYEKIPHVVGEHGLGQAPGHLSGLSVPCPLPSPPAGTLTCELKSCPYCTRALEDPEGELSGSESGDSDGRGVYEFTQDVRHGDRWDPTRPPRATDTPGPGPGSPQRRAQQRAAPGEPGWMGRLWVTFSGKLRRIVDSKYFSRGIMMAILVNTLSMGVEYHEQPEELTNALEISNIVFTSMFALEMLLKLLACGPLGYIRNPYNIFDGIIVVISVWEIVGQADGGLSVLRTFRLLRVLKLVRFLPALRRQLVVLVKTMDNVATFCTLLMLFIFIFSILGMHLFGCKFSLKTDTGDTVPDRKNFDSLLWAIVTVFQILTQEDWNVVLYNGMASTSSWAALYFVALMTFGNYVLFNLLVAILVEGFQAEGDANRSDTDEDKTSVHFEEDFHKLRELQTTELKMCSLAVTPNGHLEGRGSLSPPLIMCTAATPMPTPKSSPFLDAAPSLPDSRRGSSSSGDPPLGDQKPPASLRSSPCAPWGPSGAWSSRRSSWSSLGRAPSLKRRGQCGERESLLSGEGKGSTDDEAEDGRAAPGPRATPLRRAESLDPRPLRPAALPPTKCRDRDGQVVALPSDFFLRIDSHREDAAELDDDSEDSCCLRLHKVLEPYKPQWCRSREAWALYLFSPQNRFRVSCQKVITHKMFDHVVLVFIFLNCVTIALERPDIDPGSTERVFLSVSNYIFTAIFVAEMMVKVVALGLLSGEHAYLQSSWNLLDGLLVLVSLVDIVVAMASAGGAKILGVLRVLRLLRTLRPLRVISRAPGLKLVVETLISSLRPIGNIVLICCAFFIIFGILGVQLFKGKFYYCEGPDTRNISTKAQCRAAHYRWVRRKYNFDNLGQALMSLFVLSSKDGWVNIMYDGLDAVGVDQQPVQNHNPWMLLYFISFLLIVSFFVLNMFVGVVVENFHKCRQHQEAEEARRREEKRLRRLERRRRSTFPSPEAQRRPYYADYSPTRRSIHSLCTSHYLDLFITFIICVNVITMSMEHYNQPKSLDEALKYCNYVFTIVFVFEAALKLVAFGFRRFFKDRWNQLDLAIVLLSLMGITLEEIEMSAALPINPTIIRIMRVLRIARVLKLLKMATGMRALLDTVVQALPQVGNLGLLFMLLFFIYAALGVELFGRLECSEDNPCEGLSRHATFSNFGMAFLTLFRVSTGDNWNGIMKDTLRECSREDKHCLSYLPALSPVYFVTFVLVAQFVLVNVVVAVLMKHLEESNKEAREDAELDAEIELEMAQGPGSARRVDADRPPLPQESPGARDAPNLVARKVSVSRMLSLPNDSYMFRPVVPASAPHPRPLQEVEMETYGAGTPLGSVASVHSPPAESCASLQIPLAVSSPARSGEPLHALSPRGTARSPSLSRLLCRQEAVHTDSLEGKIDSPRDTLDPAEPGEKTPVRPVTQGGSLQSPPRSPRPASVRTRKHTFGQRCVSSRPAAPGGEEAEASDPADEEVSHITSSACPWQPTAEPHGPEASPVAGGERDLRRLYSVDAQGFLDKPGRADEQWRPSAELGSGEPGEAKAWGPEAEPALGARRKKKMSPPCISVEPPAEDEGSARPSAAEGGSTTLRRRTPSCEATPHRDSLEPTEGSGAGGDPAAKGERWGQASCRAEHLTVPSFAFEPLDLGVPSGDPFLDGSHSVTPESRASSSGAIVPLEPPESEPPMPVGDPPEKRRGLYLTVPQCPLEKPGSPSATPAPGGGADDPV
Another experiment addresses T1, Caspase-3 (Homo sapiens, UniProt P42574).
T1 sequence (P42574 whole entry): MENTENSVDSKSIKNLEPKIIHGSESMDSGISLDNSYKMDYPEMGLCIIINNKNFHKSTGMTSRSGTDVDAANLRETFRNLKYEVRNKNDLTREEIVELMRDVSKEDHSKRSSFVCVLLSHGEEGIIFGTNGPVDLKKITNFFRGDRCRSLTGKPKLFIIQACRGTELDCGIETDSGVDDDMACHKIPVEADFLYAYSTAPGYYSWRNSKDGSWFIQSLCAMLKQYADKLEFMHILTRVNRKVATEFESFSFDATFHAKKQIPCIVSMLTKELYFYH
Type of experiment: functional.

Experiment [4] deals with T2, Sentrin-specific protease 8 (Homo sapiens, UniProt Q96LD8).
T2 sequence (Q96LD8 whole entry): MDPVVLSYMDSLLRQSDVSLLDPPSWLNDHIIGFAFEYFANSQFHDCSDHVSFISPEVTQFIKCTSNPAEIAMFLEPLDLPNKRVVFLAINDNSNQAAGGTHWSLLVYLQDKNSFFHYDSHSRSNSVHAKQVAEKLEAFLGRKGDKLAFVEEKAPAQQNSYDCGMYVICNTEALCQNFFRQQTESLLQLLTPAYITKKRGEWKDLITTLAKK
Type of experiment: functional.

Experiment [5] has as its target T3, Sentrin-specific protease 6 (Homo sapiens, UniProt Q9GZR1).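 Also: Luminescence-based dose-response confirmatory assay of SENP6 inhibition, following up an ultra-high-throughput screen.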
T3 sequence (Q9GZR1 whole entry): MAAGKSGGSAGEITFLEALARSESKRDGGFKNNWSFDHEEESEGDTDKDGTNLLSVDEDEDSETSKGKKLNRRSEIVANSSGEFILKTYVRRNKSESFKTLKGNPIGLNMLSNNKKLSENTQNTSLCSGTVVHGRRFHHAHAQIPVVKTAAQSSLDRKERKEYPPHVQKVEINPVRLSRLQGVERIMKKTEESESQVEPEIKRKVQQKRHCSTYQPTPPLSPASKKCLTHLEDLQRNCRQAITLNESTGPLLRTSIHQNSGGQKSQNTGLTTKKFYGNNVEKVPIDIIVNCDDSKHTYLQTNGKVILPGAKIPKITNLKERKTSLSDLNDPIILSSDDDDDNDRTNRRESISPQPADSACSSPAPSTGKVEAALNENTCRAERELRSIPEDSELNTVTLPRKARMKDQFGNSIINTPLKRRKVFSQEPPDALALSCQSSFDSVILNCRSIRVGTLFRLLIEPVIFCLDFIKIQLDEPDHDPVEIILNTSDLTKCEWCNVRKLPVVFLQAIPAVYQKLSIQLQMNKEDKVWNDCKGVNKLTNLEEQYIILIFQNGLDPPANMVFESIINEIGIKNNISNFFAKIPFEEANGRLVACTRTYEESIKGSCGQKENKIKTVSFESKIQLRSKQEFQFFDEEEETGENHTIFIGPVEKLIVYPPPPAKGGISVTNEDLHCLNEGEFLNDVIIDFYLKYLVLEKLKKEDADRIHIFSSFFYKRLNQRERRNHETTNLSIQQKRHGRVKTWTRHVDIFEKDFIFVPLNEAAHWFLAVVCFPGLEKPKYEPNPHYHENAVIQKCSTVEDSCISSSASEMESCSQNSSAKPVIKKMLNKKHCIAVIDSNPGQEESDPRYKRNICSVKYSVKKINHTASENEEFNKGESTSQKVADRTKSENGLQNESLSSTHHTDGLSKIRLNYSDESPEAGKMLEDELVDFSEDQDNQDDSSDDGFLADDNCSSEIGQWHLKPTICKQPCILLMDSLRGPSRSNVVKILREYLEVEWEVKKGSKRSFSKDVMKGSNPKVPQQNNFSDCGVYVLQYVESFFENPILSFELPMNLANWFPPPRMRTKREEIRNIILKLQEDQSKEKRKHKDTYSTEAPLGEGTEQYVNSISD
Type of experiment: functional.

Experiment [6] concerns the target T4, Sentrin-specific protease 7 (Homo sapiens, UniProt Q9BQF6).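 Also: Luminescence-based dose-response confirmation of ultra-high-throughput screening hits, measuring inhibition of SENP7.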
T4 sequence (Q9BQF6 whole entry): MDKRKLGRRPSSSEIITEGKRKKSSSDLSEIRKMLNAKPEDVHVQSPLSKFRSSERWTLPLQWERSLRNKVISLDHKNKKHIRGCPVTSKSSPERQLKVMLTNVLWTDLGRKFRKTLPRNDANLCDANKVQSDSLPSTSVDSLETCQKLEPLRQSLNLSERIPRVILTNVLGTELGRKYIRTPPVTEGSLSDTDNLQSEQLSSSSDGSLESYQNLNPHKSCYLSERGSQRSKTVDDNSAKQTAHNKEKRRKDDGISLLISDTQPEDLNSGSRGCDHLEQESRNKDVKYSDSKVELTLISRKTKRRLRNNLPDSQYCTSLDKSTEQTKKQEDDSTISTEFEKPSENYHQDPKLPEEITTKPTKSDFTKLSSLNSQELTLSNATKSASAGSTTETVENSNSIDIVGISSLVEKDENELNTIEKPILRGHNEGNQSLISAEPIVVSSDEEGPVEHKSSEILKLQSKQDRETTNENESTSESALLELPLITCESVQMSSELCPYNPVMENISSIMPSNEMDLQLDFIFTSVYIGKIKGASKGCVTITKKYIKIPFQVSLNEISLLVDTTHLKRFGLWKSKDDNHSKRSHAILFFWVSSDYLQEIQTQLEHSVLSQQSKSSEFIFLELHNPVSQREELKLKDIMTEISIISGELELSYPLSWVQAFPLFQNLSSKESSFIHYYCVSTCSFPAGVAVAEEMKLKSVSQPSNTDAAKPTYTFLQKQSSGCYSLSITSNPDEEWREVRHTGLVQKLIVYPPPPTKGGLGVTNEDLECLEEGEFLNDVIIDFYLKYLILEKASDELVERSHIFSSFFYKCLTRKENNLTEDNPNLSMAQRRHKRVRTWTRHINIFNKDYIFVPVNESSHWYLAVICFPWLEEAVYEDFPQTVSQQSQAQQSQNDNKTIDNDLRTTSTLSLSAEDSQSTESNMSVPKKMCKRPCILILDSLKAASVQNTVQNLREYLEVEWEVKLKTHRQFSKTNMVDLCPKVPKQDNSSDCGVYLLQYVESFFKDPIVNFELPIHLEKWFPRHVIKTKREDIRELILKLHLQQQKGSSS
Type of experiment: functional.

For experiment [7], the target named is Intestinal-type alkaline phosphatase (Mus musculus, UniProt P24822). In words: PubChem AID 488785. Type of experiment: functional.
Intestinal-type alkaline phosphatase (Mus musculus, UniProt P24822), sequence (P24822 whole entry): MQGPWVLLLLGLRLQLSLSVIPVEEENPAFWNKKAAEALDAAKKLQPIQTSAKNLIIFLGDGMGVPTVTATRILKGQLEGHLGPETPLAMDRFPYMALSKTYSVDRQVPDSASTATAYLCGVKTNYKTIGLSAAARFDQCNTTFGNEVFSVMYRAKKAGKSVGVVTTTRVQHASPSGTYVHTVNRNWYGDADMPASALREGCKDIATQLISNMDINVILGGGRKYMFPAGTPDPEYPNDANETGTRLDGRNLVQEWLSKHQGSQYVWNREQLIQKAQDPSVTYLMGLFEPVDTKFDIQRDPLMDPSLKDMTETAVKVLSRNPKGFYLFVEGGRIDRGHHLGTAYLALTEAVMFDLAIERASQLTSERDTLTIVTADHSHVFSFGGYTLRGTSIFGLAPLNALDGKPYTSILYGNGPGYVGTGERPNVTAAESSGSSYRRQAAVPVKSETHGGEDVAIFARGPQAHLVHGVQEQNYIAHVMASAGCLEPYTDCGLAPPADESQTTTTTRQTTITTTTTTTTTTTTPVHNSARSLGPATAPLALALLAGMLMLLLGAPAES
The target of experiment [8] is T5, Alkaline phosphatase, tissue-nonspecific isozyme (Homo sapiens, UniProt P05186).
T5 sequence (P05186 whole entry): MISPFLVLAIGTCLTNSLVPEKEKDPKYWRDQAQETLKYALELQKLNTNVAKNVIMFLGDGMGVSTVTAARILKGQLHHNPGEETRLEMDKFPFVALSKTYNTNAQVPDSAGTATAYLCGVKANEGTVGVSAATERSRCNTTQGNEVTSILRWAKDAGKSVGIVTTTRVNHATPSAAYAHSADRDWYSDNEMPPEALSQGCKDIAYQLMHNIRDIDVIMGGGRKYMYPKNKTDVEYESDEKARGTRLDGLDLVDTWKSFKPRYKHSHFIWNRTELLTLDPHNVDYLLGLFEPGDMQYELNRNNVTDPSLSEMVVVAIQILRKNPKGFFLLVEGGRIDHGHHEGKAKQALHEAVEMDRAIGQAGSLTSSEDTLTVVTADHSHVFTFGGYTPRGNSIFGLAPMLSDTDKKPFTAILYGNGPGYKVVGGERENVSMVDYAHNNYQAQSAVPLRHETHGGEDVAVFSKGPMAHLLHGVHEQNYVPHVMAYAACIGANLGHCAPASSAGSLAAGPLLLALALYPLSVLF
Kind of experiment: TNAP enzyme inhibition by screening hits, dose response, selectivity assay for mouse IAP inhibitor project, biochemical, human TNAP, uHTS hits (AID 488906). Type of experiment: functional.

The target in experiment [9] is Intestinal-type alkaline phosphatase (Homo sapiens, UniProt P09923). Kind of experiment: activation of human intestinal alkaline phosphatase – biochemical, dose response (AID 488873). Type of experiment: functional.
Intestinal-type alkaline phosphatase (Homo sapiens, UniProt P09923), sequence (P09923 whole entry): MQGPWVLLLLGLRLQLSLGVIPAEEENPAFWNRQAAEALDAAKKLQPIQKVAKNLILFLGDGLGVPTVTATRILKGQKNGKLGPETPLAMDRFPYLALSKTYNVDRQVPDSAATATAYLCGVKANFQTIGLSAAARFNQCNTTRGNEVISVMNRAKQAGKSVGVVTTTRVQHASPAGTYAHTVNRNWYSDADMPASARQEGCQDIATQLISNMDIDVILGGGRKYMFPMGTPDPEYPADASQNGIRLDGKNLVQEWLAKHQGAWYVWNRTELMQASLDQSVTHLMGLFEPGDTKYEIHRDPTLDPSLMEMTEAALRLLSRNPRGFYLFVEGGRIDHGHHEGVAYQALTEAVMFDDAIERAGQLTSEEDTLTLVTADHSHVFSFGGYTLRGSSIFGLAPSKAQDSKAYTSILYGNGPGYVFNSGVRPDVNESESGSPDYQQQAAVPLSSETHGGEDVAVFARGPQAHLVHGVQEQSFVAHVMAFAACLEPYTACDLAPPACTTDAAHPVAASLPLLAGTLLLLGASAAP
Experiment [10] deals with HEK293. In words: NOD2 signaling inhibitors in MDP-stimulated cells, cell-based, uHTS, luminescence (AID 2001). The conditions noted are these: Homo sapiens. Type of experiment: functional.
Experiment [11] deals with HEK293. In words: NOD1 signaling inhibitors, primary screen, cell-based, luminescence, uHTS (AID 1578). Type of experiment: functional. The conditions noted are these: Homo sapiens.
The subject of experiment [12] is HEK293. In words: cells. Type of experiment: functional, cell-based. The conditions noted are these: Homo sapiens.
Experiment [13] deals with HEK293. Kind of experiment: cells. Type of experiment: functional, cell-based. The conditions noted are these: Homo sapiens. The source holds these as a separate data set.

On to `COc1ccc(NCc2nnc(SCC(=O)Nc3nc(-c4ccccc4)cs3)n2-c2ccccc2)cc1`, for which, in the experiment with INS1, the AC50 was 6.62 µM (active). The CC50 with Vero is 8.35 µM (active). Besides, the values for the EC50 in experiment [1] and in experiment [2] were 2.54 µM (active) and 2.78 µM (active), respectively.

`CCn1c(CNc2ccc(Cl)cc2)nnc1SCC(=O)OC1CCCCC1`: in experiment [3], the EC50 is 2.56 µM (active).

Regarding `O=C(Nc1ccc2ccccc2c1)c1cccc(F)c1`, the IC50 at Caspase-3 is 18.3 µM (active); in experiment [4] it was > 100 µM (inactive); in [5], 5.72 µM (active); in experiment [6], 4.43 µM (active).

Turning to `COc1ccccc1CNC(=O)CCNS(=O)(=O)c1ccc2[nH]c(=O)oc2c1`, the results for the IC50 in [7] and in [8] were 11.4 µM (active) and 27.5 µM (active), respectively. For the same compound, in experiment [9], the EC50 is 45.1 µM (active).

As for `Cc1ccc(S(=O)(=O)Nc2ccc3nc(-c4cccn4C)[nH]c3c2)cc1`, the EC50 in [3] was 5.6 µM (active).

Regarding `FC(F)(F)c1cc(C(F)(F)F)c2ccc(Oc3ccccc3)nc2n1`, in [3], the EC50 was 4.65 µM (active).

On to `Cc1cc(N2CCC(C(=O)Nc3ccc(F)cc3)CC2)nc(-c2ccccc2)n1`, for which the EC50 in [3] was 4.26 µM (active).

On to `CCCCCC(=O)N1C[C@H](O)[C@@H](n2cc(-c3ccc(F)cc3)nn2)C[C@@H]1c1ccc(Cl)cc1`, for which the CC50 with Vero was > 25 µM (active).

In the case of `COC(=O)c1scc(S(=O)(=O)C(C)C)c1N/N=C(\C#N)C(=O)c1ccc(Cl)cc1`, the IC50 with HEK293 [10], in the experiment on HEK293 [12] and with HEK293 [13] was > 20 µM (inactive) each time. Moreover, the EC50 in the experiment with HEK293 [11] was 2.17 µM (active).
